Tested on: endometrium of the superovulated pseudopregnant rabbit
Test: Endometrial receptivity in the superovulated pseudopregnant rabbit model
Format: in vivo, New Zealand White rabbits
Conditions: for endometrial maturation (in words): compared with Group 1 controls not subject to ovarian hyperstimulation; for Mc-Phail [x ± SD] (endometrial transformation index, 1 no to 4 high transformation) / Uterine wet weight [x ± SD]: measured at d5 p.hCG; for Uteroglobin ISH [expression in luminal epithelial cells]: uteroglobin mRNA at d5 p.hCG
Method: The effects of a 17α-fluoralkylated progesterone receptor antagonist on endometrial activity was evaluated in the superovulated pseudopregnant rabbit model. The pseudopregnancy of the rabbit has proven to be a model system for the human luteal phase (Beier and Kuhnel, 1973, Hormone Res. 4:1-27; Fischer et al., 1985, Fertilitat 1:101-109. In this species, ovarian stimulation induces an advancement of secretory transformation (Delbos-Winter et al., 1987, Fertilitat 3: 87-93) as well as an enhancement of gland formation.
A total of 25 sexually mature nulliparous New Zealand White rabbits with a body weight of 3.1 to 4.0 kg were used for the analysis. The animals were divided into two control groups (groups 1 and 2) and three treatment groups (groups 3-5), with five animals in each group.
Control group 1 received 75 international units (IU) of human chorionic gonadotropin (hCG) administered intravenously in order to induce pseudopregnancy. The day of hCG-injection was designated as day 0 of pseudopregnancy (d0 p.hCG).
Control group 2 and treatment groups 3, 4, and 5 were gonadotropin-stimulated with 5 IU of the human menopausal gonadotropin (HMG) Pergonal® (Serono Pharma, Unterschleipheim, Germany) for 3 days, by subcutaneous injection, in order to induce multiple follicular growth. Pseudopregnancy was induced by the administration of human chorionic gonadotropin (hCG) as described for control group 1 above.
Treatment groups 3, 4 and 5 also received a single per oral application of a 17α-fluoralkylated progesterone receptor antagonist (Compound A) two days after pseudopregnancy induction with the administration of human chorionic gonadotropin (d2 p.hCG).
Animals in all treatment groups were sacrificed on day 5 following pseudopregnancy induction (d5 p.hCG), and uteri were removed. Relative uterine wet weights were determined (in mg/100 g body weight) and a part of the uterus was snap frozen in liquid nitrogen for determination of uteroglobin expression by in situ hybridization. Uteroglobin expression is known as a highly sensitive parameter for determination of endometrial receptivity (Beier, H. M., 1968, Biochem Biophys. Acta. 160:289-291; Beier, H. M., 1982, in: Beier, H. M. and Karlson, P. (eds.), Proteins and Steroids in Early Pregnancy), and is a marker for secretory activity (Beier, 1976, J. Reprod. Fertil. Suppl. 25:53-69) and differentiation of the endometrial epithelium (Krusche & Beier, 1994, Ann. Anat. 176:23-31). In situ hybridization for detection of uteroglobin expression was conducted as previously described in Krusche & Beier, above. Another piece of the uterus was removed and processed for paraffin histology in order to determine the endometrial transformation status using the McPhail-Index (McPhail M k, 1934, J. Phys. 83:145-156) The McPhail Index reflects different degrees of progestogenic (transforming) activity in the rabbit endometrium:
3. pronounced transformation

[1] = Group 3: HMG + hCG, single per oral 0.1 mg/kg on d2 p.hCG
[2] = Group 4: HMG + hCG, single per oral 1 mg/kg on d2 p.hCG
[3] = Group 5: HMG + hCG, single per oral 10 mg/kg on d2 p.hCG

CC(=O)c1ccc([C@H]2C[C@@]3(C)[C@@H](CC[C@@]3(O)C(F)(F)C(F)(F)F)[C@@H]3CCC4=CC(=O)CCC4=C32)cc1 [Compound A, 11β-(4-acetylphenyl)-17β-hydroxy-17α-(1,1,2,2,2-pentafluoroethyl)estra-4,9-dien-3-one]
endometrial maturation (in words) (0.1 mg/kg (Group 3)): roughly corresponded with that of control animals which were not subject to ovarian hyperstimulation | endometrial maturation (in words) (1 mg/kg (group 4)): delayed the timing of maturation beyond that observed in animals which were not subject to hyperovarian stimulation | endometrial maturation (in words) (10 mg/kg (group 5)): delayed the timing of maturation beyond that observed in animals which were not subject to hyperovarian stimulation | Mc-Phail [x ± SD] (endometrial transformation index, 1 no to 4 high transformation) [1]: 3.0 ± 0.1 | Uterine wet weight [x ± SD] [1]: 305 ± 48 mg/kg | Uteroglobin ISH [expression in luminal epithelial cells] [1]: very high | Mc-Phail [x ± SD] (endometrial transformation index, 1 no to 4 high transformation) [2]: 1.5 ± 0.3 | Uterine wet weight [x ± SD] [2]: 227 ± 56 mg/kg | Uteroglobin ISH [expression in luminal epithelial cells] [2]: very low | Mc-Phail [x ± SD] (endometrial transformation index, 1 no to 4 high transformation) [3]: 1.1 ± 0.3 | Uterine wet weight [x ± SD] [3]: 144 ± 30 mg/kg | Uteroglobin ISH [expression in luminal epithelial cells] [3]: absent

— patent US20040152684A1, “Use of antigestagens for inhibiting accelerated endometrial maturation during infertility treatment” (priority 2001, published 2004)
